Measurements as given in patent publication US20110171160A1, “POLYMER CONJUGATES OF KISS1 PEPTIDES” (Nektar Therapeutics, priority 2008, published 2011).
No end group written: not given here.

Biological target: T1, human GPR54 (Homo sapiens, UniProt Q969F8)
T1 construct: host or cells: Chem-1 host cells, with the promiscuous G protein Galpha15 (Gal 5 [sic])
Assay: FLIPR calcium flux agonist assay on GPR54-expressing Chem-1 cell line
Type: cell-based
Details: time of release n/a (no release incubation); for EC50: read-out: EC50 (nM) of agonist activation at GPR54
Method: A FLIPR assay was conducted to screen Kisspeptin and PEG-Kisspeptin peptides for dose-dependent agonist activities on the GP[…]-Protein coupled receptor. […] All compounds were diluted in their storage solvents to produce 250× (of the top dose listed below) master stock solutions. Compounds were then transferred from their master stock solutions into a daughter plate that was used in the assay. Each 250× solution was diluted into assay buffer (1×HBSS with 20 mM HEPES and 2.5 mM Probenecid) to obtain the final top test concentration. Calcium flux agonist assay: Chemicon's cloned human GPR54-expressing cell line is made in the Chem-1 host, which supports high levels of recombinant GPR54 expression on the cell surface and contains high levels of the promiscuous G protein Gal 5 to couple the receptor to the calcium signaling pathway. […] Reference agonist was handled as mentioned above, serving as assay control. Assay was read for 180 seconds using the FLIPR^TETRA. All plates were subjected to appropriate baseline corrections. Once baseline corrections were processed, maximum fluorescence values were exported and data manipulated to calculate percentage activation and Z'. Dose response curves were generated using GraphPad Prism. The curves were fit by utilizing sigmoidal dose response (variable slope) fitting with the bottom parameter fixed at 0 (FIGS.

T1 sequence (Q969F8 whole entry): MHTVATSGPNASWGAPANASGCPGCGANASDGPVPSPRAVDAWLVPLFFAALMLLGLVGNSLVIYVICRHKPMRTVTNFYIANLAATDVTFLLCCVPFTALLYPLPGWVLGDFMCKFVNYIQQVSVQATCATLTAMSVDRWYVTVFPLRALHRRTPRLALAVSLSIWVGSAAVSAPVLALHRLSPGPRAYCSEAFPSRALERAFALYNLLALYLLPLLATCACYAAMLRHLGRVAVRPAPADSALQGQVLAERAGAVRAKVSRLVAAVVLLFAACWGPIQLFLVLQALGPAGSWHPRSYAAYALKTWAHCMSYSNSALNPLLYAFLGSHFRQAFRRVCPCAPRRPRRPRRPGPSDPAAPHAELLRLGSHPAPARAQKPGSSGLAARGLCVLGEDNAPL

EC50 (nM) of agonist activation at GPR54 | Compound | Fold change compared to metastin [fold] | EC50 [nM]
No activity | Ald40K-KP54: Kisspeptin-54 mono-PEGylated with mPEG2-ButyrAldehyde-40K by reductive amination (stable conjugate) (GTSLSPPPESSGSPQQPGLSAPHSRQIPAPQGAVLVQREKDLPNYNWNSFGLRF-NH2; also: mono-PEGylated with mPEG2-butyraldehyde 40K by reductive amination, site not given here; UniProt Q15726 68-121, looked up) | – | –
– | CC(C)C[C@H](NC(=O)CNC(=O)[C@H](Cc1ccccc1)NC(=O)[C@H](CO)NC(=O)[C@H](CC(N)=O)NC(=O)[C@H](Cc1c[nH]c2ccccc12)NC(=O)[C@H](CC(N)=O)NC(=O)[C@H](Cc1ccc(O)cc1)NC(=O)[C@H](CC(N)=O)NC(=O)[C@@H]1CCCN1C(=O)[C@@H](N)CC(C)C)C(=O)N[C@@H](CCCNC(=N)N)C(=O)N[C@@H](Cc1ccccc1)C(N)=O [KP13] | 1 | 11
– | CC(C)C[C@H](NC(=O)CNC(=O)[C@H](Cc1ccccc1)NC(=O)[C@H](CO)NC(=O)[C@H](CC(N)=O)NC(=O)[C@H](Cc1c[nH]c2ccccc12)NC(=O)[C@H](CC(N)=O)NC(=O)[C@@H](N)Cc1ccc(O)cc1)C(=O)N[C@@H](CCCNC(=N)N)C(=O)N[C@@H](Cc1ccccc1)C(N)=O [KP10] | 1 | 10
No activity | Ald30K-KP13: Kisspeptin-13 mono-PEGylated with linear mPEG-ButyrALD-30K by reductive amination (stable conjugate) (LPNYNWNSFGLRF; also: mono-PEGylated with mPEG-butyraldehyde 30K by reductive amination, site not given here; UniProt Q15726 109-121, looked up) | – | –
– | GTSLSPPPESSGSPQQPGLSAPHSRQIPAPQGAVLVQREKDLPNYNWNSFGLRF-NH2 [KP54] | 16 | 190
